In US20250205253A1, “PHARMACEUTICAL COMPOSITION FOR PREVENTING OR TREATING BENIGN PROSTATIC HYPERPLASIA” (University-Industry Cooperation Group of Kyung Hee …, priority 2023, published 2025):

Experiments:
[1] = test system: siRNA-transfected RWPE-1 cells; test: siRNA transfection (NLRP3 or AR knockdown) with qRT-PCR in RWPE-1 cells; type: cell-based, human; settings: for NLRP3 level (mRNA) in AR siRNA-transfected cells / AR level (mRNA) in NLRP3 siRNA-transfected cells: DHT stimulation, with or without 100 μM MitoQ; for NLRP3 level (mRNA) in AR siRNA-transfected cells: FIG. 3E; for AR level (mRNA) in NLRP3 siRNA-transfected cells: FIG. 3D
Method: (§1) Total RNA was isolated using Easy-Blue® reagent (iNtRON Biotechnology, Inc., Gyeonggi, Korea) and transcribed into complementary DNA (cDNA) according to the manufacturer's instructions. Oligonucleotide primers (Table 1) were purchased from Bioneer Corporation (Daejeon, Korea). qRT-PCR was performed according to the known method.
The RWPE-1 cells were transfected with siRNA (Bioneer Corporation) or pmaxGFP™ vector using a 4D-Nucleofector™ system (Lonza, Basel, Switzerland). The following siRNA nucleotide sequences were used: NLRP3 siRNA, […]=tt(1-AS) (SEQ ID NO.: 39) and […]=tt (1-AA) (SEQ ID NO.: 40) and AR siRNA, […]=tt (6-AS) (forward) (SEQ ID NO.: 41) and […]=tt (6-AA) (reverse) (SEQ ID NO.: 42). After four hours of incubation, the cells were treated in the presence or absence of MitoQ 100 μM. The effect of NLRP3 or AR knockdown was detected using qRT-PCR.

AR (PDB ID: 2AMA) = biological target: T1, AR (PDB ID: 2AMA) (Homo sapiens, UniProt P10275); test: Docking simulation (AutoDock Vina v1.1.2) on AR
T1 sequence (P10275 664-920 limits assumed): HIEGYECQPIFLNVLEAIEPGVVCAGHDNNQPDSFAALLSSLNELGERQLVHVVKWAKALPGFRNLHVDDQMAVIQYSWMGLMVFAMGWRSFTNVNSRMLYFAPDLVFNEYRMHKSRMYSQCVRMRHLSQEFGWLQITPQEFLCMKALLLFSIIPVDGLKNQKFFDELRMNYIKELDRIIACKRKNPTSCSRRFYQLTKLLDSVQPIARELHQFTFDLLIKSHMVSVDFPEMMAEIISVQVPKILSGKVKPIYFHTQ

[2] = test system: testosterone-induced BPH rat model; test: Testosterone-induced BPH rat model, prostate size and weight; type: in vivo
Excerpt: (§2) Six-week-old male Sprague-Dawley rats (n=40; 200 +20 g) were purchased from Daehan Biolink Co. (Daejeon, Korea). The animals were randomly allocated, four rats in each cage, and housed in accordance with the guidelines for the care and use of laboratory animals adopted and promulgated by Sangji University according to the requirements established by the National Institutes of Health. All experimental protocols were approved by the Institutional Animal Care and Use Committee (IACUC) of Sangji University before the initiation of the study (IACUC Animal Approval Protocol #2018-18). The rats were acclimatized to laboratory conditions for one week before initiating the experiment.
(§3) The rats in the control group were incised and sutured without removing the testicles following anesthesia using zoletil 50 (intraperitoneal injection, 10 mg/kg). […] Twenty-four hours after the final administration, all rats were euthanized following anesthesia with zoletil 50 (i.p., 20 mg/kg). Blood samples were drawn through cardiac puncture, and serum was obtained via centrifugation and stored at −80° C.

[3] = test system: testosterone-induced BPH rat model; test: PCNA IHC and qRT-PCR in prostate of rats with BPH; type: in vivo
Method: as §1, §2
(§4) The rats in the control group were incised and sutured without removing the testicles following anesthesia using zoletil 50 (intraperitoneal injection, 10 mg/kg). […] Twenty-four hours after the final administration, all rats were euthanized following anesthesia with zoletil 50 (i.p., 20 mg/kg). […]

[4] = test system: DHT-stimulated RWPE-1 cells; test: Mitochondrial activity and mtROS levels (MitoTracker, MitoSOX); type: cell-based, human; settings: DHT-stimulated RWPE-1, 100 μM MitoQ, 24 h; FIG. 1F
[5] = test system: DHT-stimulated RWPE-1 cells; test: CCK-8 assay, RWPE-1 cell proliferation under DHT stimulation; type: cell-based, human; settings: 10 nM DHT, 24 h, FIG. 1C
Method: (§5) The RWPE-1 cells were cultured in a keratinocyte serum-free medium supplemented with 0.05 mg/mL bovine pituitary extract, 5 ng/mL human recombinant epidermal growth factor, and antibiotic-antimycotic solution (Gibco®, Big Cabin, OK, USA). The cells were cultured in a humidified environment at 37° C. and 5% CO2. The cells were cultured in a serum-free medium to block the effects of autocrine androgens.
(§6) The cell viability and proliferation were measured using the Cell Counting Kit-8 (CCK-8, Dojindo Molecular Technologies, Inc., D.C., USA). The RWPE-1 cells were plated to 96-well plates (1×10^5 cells/well) and incubated for 24 h. […] After the treatment, the CCK-8 solution was added to each well and incubated for four hours. The number of viable cells was monitored by measuring absorbance at 450 nm using an Epoch microplate reader (Biotek, Winooski, VT, USA).

RWPE-1 cells = test: CCK-8 assay, viability of MitoQ-treated RWPE-1 cells; type: cell-based, human; settings: without DHT, 24 h, FIG. 1B
Method: The normal human prostate epithelial cell line, RWPE-1, was obtained from the American Type Culture Collection (Manassas, VA, USA).
as §5, §6

[6] = test system: DHT-stimulated RWPE-1 cells; test: Western blot analysis in DHT-stimulated RWPE-1 cells; type: cell-based, human; settings: DHT-stimulated RWPE-1, MitoQ 25, 50, 100 μM
Method: as §5
(§7) Total protein was extracted from the RWPE-1 cells and rat prostate tissues, and a western blot analysis was performed. An antibody against AR (Cat. No. sc-7305) was purchased from Santa Cruz Biotechnology, Inc. (TX, USA). Boster Biological Technology (CA, USA) provided an antibody against a prostate-specific antigen (PSA; Cat. No. PB9259). An antibody against caspase-3 (Cat. No. #9661) was purchased from Cell Signaling Technology. Novus Biologicals (CO, USA) provided an antibody against NLRP3 (Cat. No. NBP2-12446). An antibody against IL-1β (Cat. No. 2105) was purchased from Abcam (Cambridge, UK).

[7] = test system: testosterone-induced BPH rat model; test: Immunofluorescence (8-OHdG, NLRP3) of rat prostate tissue; type: in vivo
Method: After deparaffinization and rehydration, rat prostate tissue slides were incubated with anti-mouse 8-OHdG antibodies or anti-rabbit NLRP3 antibodies and visualized with FITC-conjugated anti-mouse and TRITC-conjugated anti-rabbit secondary antibodies, respectively.
The slides were mounted and detected using a Nikon X-Cite-Series 120 Q microscope (Nikon, Japan). The exposure parameters were the same for each sample.
as §2, §4

[8] = test system: testosterone-induced BPH rat model; test: Serum DHT and testosterone measurement (ELISA) in rats with BPH; type: in vivo
Excerpt: as §2, §3
The serum DHT and testosterone levels were quantified using commercial ELISA kits (Cusabio, TX, USA). The assays were performed according to the manufacturer's instructions.

[9] = test system: testosterone-induced BPH rat model; test: Histological analysis (H&E) of prostate tissue of rats with BPH; type: in vivo; settings: MitoQ 5, 25 mg/kg/day; Saw 100 mg/kg/day p.o.; FIGS. 4C, 4D
Excerpt: as §2, §3
Prostate tissues from each group were fixed in 4% formalin and embedded in paraffin. The tissues were cut into 4-μm sections. […] The thickness of the epithelium in the prostate tissues was measured using the Leica Application Suite software (LAS ver. 3.3.0, Leica Microsystems, Inc., Buffalo Grove, IL, USA).

[10] = test system: testosterone-induced BPH rat model; test: ROS assay on cells from rat prostate tissue; type: in vivo; settings: dose-dependent, MitoQ 5 and 25 mg/kg/day; FIG. 5C
Excerpt: as §2, §3
After the male rats were euthanized, the prostate tissues were excised and treated with type I collagenase (Thermo Fisher Scientific, MA, USA) to isolate the cells. […] The cells were incubated for 30 minutes at 37° C. and detected using a Muse® Cell Analyzer (Merck, Darmstadt, Germany).

[11] = test system: testosterone-induced BPH rat model; test: qRT-PCR mRNA level in prostate of rats with BPH; type: in vivo
Method: as §1, §2, §3

[12] = test system: DHT-stimulated RWPE-1 cells; test: Immunofluorescence (8OHdG, NLRP3, AR) in DHT-stimulated RWPE-1 cells; type: cell-based, human; settings: DHT-stimulated RWPE-1, MitoQ 25, 50, 100 μM
Method: as §5
Thereafter, the cells were washed and incubated with fluorescein isothiocyanate (FITC)-conjugated anti-mouse or tetramethylrhodamine (TRITC)-conjugated anti-rabbit secondary antibodies. Nuclei were stained with 4′,6-diamidino-2-phenylindole (Life Technologies). Images were captured using an optical microscope (ECLIPSE Ni-U, Nikon, Tokyo, Japan).

[13] = test system: testosterone-induced BPH rat model; test: Western blot of prostate tissue of rats with BPH; type: in vivo
Method: as §7, §2, §3

[14] = test system: DHT-stimulated RWPE-1 cells; test: qRT-PCR mRNA expression in DHT-stimulated RWPE-1 cells; type: cell-based, human; settings: for mRNA level of HO-1 and GPX-1: FIG. 1E
Method: as §5, §1

[15] = test system: DHT-stimulated RWPE-1 cells; test: ATP determination assay in DHT-stimulated RWPE-1 cells; type: cell-based, human; settings: DHT-stimulated RWPE-1, MitoQ 25, 50, 100 μM, dose-dependent; FIG. 2F
[16] = test system: DHT-stimulated RWPE-1 cells; test: ATPase assay in DHT-stimulated RWPE-1 cells; type: cell-based, human; settings: DHT-stimulated RWPE-1, MitoQ 25, 50, 100 μM, 24 h; FIG. 2E

AR siRNA: siRNA CUCUCUUCACAGCCGAAGA=tt (SEQ ID NO.: 41) and UCUUCGGCUGUGAAGAGAG=tt (SEQ ID NO.: 42) (3' dTdT overhangs, further chemistry not given here)
NLRP3 level (mRNA) in AR siRNA-transfected cells [1]: significantly enhanced

NLRP3 siRNA: siRNA CGUGACAGUCCUUCUGGAA=tt (SEQ ID NO.: 39) and UUCCAGAAGGACUGUCACG=tt (SEQ ID NO.: 40) (3' dTdT overhangs, further chemistry not given here)
AR level (mRNA) in NLRP3 siRNA-transfected cells [1]: significantly increased
NLRP3 and IL-1β levels after siRNA transfection ([1]; DHT-stimulated RWPE-1, vs GFP-transfected cells, FIG. 2C): notably suppressed
NLRP3 mRNA expression after siRNA transfection ([1]; RWPE-1 cells, FIG. 2G): significant decrease

mitoquinone
difference between the affinity values of DHT and MitoQ for AR (AR (PDB ID: 2AMA)): ~1 kcal/mol
prostate weight (PW/BW ratio) ([2]; MitoQ 5, 25 mg/kg/day, Saw 100 mg/kg/day p.o., vs BPH, FIG. 4B): significant reduction
prostate size ([2]; MitoQ 5 and 25 mg/kg p.o., four weeks, FIG. 4A): reduced
cellular proliferation inhibiting effect compared to Saw ([3]; MitoQ 25 mg/kg/day vs Saw 100 mg/kg/day): superior
overexpression of PCNA protein and mRNA ([3]; MitoQ 5, 25 mg/kg/day, Saw 100 mg/kg/day p.o., FIGS. 4C, 4E, 4F): clearly suppressed
excessive production of mtROS [4]: suppressed
concentration of MitoQ significantly suppressing DHT-stimulated RWPE-1 cell proliferation [5]: ≥ 6.25 μM
concentration of MitoQ suppressing RWPE-1 cell proliferation (viability) (RWPE-1 cells): ≥ 25 μM
SOD2 and catalase protein expression ([6]; FIG. 1G): significantly increased
PSA protein expression ([6]; FIG. 3C): considerably suppressed
BPH-upregulated expression of NLRP3 ([7]; FIGS. 6A, 6B): reversed
intensity of 8-OHdG-positive staining ([7]; vs BPH groups, FIGS. 5A, 5B): significantly lower
serum DHT overproduction ([8]; FIG. 7A): significantly suppressed
circulating (serum) testosterone level ([8]; MitoQ 25 mg/kg, Saw 100 mg/kg/day, FIG. 7E): significantly reduced
thickened epithelium of prostate tissue [9]: significantly reduced
intracellular ROS generation in prostate cells [10]: significantly suppressed
mRNA level of HO-1, SOD1, and PGC1α ([11]; FIG. 5D): upregulated
increased mRNA level of PYCARD and IL-1β ([11]; FIG. 6C): repressed
mRNA level of 5α-reductase 2, AR, and SRC-1 ([11]; FIGS. 7B, 7C): downregulated
overexpression of 8OHdG (oxidative stress indicator) ([12]; FIG. 1D): notably suppressed
NLRP3 protein expression ([12]; FIG. 2A): significantly suppressed
AR overexpression (protein) ([12]; FIG. 3A): clearly suppressed
overexpression of NLRP3, pro-caspase 1, cleaved caspase 1, and IL-1β proteins ([13]; FIGS. 6D, 6E): suppressed
expression of catalase and SOD2 (protein) ([13]; vs BPH groups, FIG. 5E): significantly higher
protein expression of PSA ([13]; vs BPH groups, FIG. 7D): decreased
AR level (mRNA) in NLRP3 siRNA-transfected cells [1]: notably downregulated
NLRP3 level (mRNA) in AR siRNA-transfected cells [1]: significantly suppressed
mRNA level of HO-1 and GPX-1 ([14]; DHT-stimulated RWPE-1, 100 μM MitoQ): significantly increased
mRNA expression of NLRP3, PYCARD, and IL-1β ([14]; DHT-stimulated RWPE-1, MitoQ 25, 50, 100 μM, FIG. 2B): significantly reduced
mRNA level of AR, 5α-reductase 2, and PSA ([14]; DHT-stimulated RWPE-1, MitoQ 25, 50, 100 μM, FIG. 3B): notably inhibited
mRNA level of HO-1 and GPX-1 ([14]; DHT-stimulated RWPE-1, MitoQ treatment): normalized
ATP level [15]: significantly reduced
ATPase-specific activity [16]: significantly suppressed
